Measurements: paper PMC3914206

Tests used:
Type in all cases: binding
Details in all cases: Compound Concentration 10 µM
[1] = target: T1, panel of 442 kinases (Homo sapiens, UniProt P07949, V804M)
T1 construct: purchased KINOMEscan
Text: (§1) We assessed the selectivity of members of this scaffold using the KINOMEscan methodology across a near comprehensive panel of 442 kinases [[18,27]].

[2] = target: T2, panel of 442 kinases (Homo sapiens, UniProt Q8N5S9)
T2 construct: purchased KINOMEscan
Text: as §1

[3] = target: T3, panel of 442 kinases (Homo sapiens, UniProt Q9UIK4)
T3 construct: purchased KINOMEscan
T3 sequence (Q9UIK4 whole entry): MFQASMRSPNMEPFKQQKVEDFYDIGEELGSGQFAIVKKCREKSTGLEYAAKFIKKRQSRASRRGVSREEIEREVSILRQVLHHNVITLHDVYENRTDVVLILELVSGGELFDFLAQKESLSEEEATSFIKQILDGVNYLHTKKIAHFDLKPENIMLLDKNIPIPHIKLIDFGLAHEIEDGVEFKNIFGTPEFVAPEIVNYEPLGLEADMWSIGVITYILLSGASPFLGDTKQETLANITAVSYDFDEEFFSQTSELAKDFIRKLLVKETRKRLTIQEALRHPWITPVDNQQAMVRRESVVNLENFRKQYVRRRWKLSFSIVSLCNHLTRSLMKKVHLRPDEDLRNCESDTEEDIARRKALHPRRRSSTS
Text: as §1

[4] = target: T4, panel of 442 kinases (Mycobacterium tuberculosis, UniProt P9WI81)
T4 construct: purchased KINOMEscan
T4 sequence (P9WI81 whole entry): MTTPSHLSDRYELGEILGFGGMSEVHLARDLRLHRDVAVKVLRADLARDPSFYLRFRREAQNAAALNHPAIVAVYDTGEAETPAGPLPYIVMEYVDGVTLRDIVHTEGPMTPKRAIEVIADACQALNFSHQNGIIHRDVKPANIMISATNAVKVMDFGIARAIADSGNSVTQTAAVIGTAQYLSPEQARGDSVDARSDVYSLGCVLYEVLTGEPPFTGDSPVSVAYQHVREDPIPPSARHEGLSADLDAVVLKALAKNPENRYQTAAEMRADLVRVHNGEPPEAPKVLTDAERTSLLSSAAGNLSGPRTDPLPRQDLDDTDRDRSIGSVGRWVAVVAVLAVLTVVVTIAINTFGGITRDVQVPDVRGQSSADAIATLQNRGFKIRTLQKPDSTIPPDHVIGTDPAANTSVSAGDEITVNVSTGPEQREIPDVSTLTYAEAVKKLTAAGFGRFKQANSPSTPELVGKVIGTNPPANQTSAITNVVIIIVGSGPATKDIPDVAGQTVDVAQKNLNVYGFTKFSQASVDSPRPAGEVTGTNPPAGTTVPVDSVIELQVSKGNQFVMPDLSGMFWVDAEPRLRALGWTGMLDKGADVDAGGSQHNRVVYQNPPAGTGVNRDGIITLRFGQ
Text: as §1

T1 sequence (P07949 29-1114 V804M): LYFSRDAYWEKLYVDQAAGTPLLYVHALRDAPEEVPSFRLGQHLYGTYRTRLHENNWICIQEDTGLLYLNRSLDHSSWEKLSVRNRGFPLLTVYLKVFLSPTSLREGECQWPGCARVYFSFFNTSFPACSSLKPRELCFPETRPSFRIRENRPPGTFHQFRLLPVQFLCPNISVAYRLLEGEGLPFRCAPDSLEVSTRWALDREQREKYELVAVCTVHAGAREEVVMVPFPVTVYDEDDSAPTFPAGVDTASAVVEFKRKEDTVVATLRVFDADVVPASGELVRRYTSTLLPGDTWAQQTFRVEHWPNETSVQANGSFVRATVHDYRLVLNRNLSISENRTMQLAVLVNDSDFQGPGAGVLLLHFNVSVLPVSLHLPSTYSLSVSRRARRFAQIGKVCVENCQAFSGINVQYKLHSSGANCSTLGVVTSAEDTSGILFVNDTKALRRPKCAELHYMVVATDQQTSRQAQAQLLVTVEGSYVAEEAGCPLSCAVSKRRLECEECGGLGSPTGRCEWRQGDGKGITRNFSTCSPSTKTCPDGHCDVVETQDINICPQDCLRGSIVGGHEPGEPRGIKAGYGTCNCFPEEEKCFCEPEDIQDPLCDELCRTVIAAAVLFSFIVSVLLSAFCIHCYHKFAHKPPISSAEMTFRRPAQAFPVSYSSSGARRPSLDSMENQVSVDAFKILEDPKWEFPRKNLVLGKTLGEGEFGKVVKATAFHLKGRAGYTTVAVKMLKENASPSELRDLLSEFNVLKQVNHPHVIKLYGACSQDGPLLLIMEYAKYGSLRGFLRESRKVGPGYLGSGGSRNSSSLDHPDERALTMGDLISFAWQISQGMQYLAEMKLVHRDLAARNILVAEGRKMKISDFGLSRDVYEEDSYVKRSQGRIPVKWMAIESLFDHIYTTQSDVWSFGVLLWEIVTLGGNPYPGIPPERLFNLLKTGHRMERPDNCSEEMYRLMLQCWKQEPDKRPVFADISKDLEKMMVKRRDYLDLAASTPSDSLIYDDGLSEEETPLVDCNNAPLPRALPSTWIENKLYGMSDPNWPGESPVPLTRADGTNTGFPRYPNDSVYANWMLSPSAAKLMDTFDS
T2 sequence (Q8N5S9 whole entry): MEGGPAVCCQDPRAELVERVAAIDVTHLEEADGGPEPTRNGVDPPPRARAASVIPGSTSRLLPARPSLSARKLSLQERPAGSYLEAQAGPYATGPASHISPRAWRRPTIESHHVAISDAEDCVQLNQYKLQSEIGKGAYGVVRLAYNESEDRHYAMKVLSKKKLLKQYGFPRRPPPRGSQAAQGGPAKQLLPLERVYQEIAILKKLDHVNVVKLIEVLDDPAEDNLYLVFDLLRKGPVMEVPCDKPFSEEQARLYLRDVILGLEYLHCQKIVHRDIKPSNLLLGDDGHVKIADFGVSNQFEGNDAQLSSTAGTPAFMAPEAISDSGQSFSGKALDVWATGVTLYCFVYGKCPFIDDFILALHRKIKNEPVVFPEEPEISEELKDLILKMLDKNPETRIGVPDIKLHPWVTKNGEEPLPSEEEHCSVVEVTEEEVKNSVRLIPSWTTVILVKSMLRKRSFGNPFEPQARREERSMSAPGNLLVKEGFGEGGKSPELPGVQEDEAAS

Row | Structure (SMILES) | KINOMEscan: RET(V804M) [1] | KINOMEscan: CAMKK1 [2] | KINOMEscan: DAPK2 [3] | KINOMEscan: PKNB(M.tuberculosis) [4]
1 | COc1cc(C(=O)N2CCC(N3CCN(C)CC3)CC2)ccc1Nc1ncc2c(n1)N(C)c1ccccc1C(=O)N2C [15 (LRRK2-IN-1)] | 80 | 73 | 67 | 100
2 | CCOc1cc(C(=O)N2CCC(N3CCN(C)CC3)CC2)ccc1Nc1ncc2c(n1)N(C1CCCC1)c1ccccc1C(=O)N2C [Compound 26] | 100 | 100 | 99 | 96
3 | COc1cc(C(=O)N2CCC(N3CCN(C)CC3)CC2)ccc1Nc1ncc2c(n1)N1CCc3cccc(c31)C(=O)N2C [Compound 24] |  |  | 22 | 98
4 | COc1cc(C(=O)N2CCC(N3CCN(C)CC3)CC2)ccc1Nc1ncc2c(n1)N(C1CCCC1)c1ccccc1C(=O)N2C [Compound 25, 11-cyclopentyl-2-((2-methoxy-4-(4-(4-methylpiperazin-1-yl)piperidine-1-carbonyl)phenyl)amino)-5-methyl-5H-benzo[e]pyrimido[5,4-b][1,4]diazepin-6(11H)-one] | 100 | 99 | 90 | 100
